Results published in US8110543B2, “Anti-invasive and anti-angiogenic compositions” (Angstrom Pharmaceuticals, Inc., priority 1997, dated 2012).

Assays:
[1] = test system: human prostate cancer line PC-3; experiment: Matrigel invasion assay, PC-3 cells; type: cell-based; conditions: 5 μM (FIG. 1, FIG. 2)
Description: Several peptides were tested for anti-invasive capacity in a Matrigel® invasion assay system as indicated above (Kleinman et al., supra; Parish et al., supra). Several invasive human tumor lines (PC-3, MDA-MB-231) and non-human tumors (3LL, Mat B-III) were examined. The rat breast cancer line Mat B III and the human prostate cancer line PC-3 were initially used.
Tumor cells (5×10^5/mL, in a volume of 200 μL) in serum-free RPMI 1640 medium were added to a disposable transwell invasion chamber coated with Matrigel® (Becton Dickinson, Lincoln Park, N.J.). The invasion chambers were placed in 24-well tissue culture plates filled with serum-free RPMI-1640 and the plates were placed in an atmosphere of 5% CO2 in humidified air at 37° C. for 48-72 hours. The chambers were then removed, inverted, and the cells which had invaded (and now appeared on the bottom face of the invasion chamber) were fixed and stained using Diff-Quick® (Scientific Products). Cells were counted in 10 different fields on each filter and an average obtained.

Mat B-III = experiment: In vitro proliferation, Mat B-III cells; type: cell-based, rat
Description: (§1) Å6 was also tested for its ability to inhibit the proliferation of cells other than endothelial cells in vitro.

CHO = experiment: In vitro proliferation, CHO cells; type: cell-based
Description: as §1

scuPA-suPAR complex = scuPA-suPAR complex (Homo sapiens, UniProt P00749); experiment: Clot lysis assay ([125I] fibrin clots); type: biochemical; conditions: 30 minutes after initiation of clot lysis (FIG. 3)
Description: Fibrin clots were formed by supplementing plasma with [^125I] fibrinogen. Clotting was initiated by adding thrombin and calcium to the plasma mixture. Clots were washed to remove any free radioactivity, plasminogen and the activator to be tested were added to the clot and the release of [^125I] fibrin degradation products was monitored. The data presented in this figure is at 30 minutes after initiation of clot lysis. scuPA-suPAR: dose response with Å6 on clot lysis by scuPA-suPAR complex; scuPA: dose response on clot lysis by scuPA alone; scuPA/suPAR+scrambled pep: dose response with a scrambled version of Å6 (Ac-[sequence]-Am) (SEQ ID NO: 10).

HUVEC = HUVEC proliferation assay; type: cell-based, human
Description: HUVEC were plated on gelatin and allowed to adhere for 4 hrs in the presence of 2% FBS. bFGF (1 ng/mL) and the test compounds were added after 4 hours and the % proliferation (where bFGF induced proliferation was 100% and proliferation in the absence of bFGF was 0) was determined using MTS. FIG. 4: the Å6 (50 μg/mL) concentration was kept constant and the concentration of cisplatin (“CDDP”) was varied; FIG. 5: CDDP was kept constant at a sub-optimal dose (1 μg/mL) and Å6 was varied.
Å6 was tested for its ability to inhibit HUVEC proliferation.

U87 tumors = experiment: U87 glioblastoma orthotopic model; type: in vivo, mice
Description: U87 cells were inoculated into the ventricles of nude mice and treatment was initiated 72 hrs after inoculation. Tumor volume was determined using caliper measurements after euthanasia and necropsy.
A: Control; B: Å6 only; C: CDDP only; D: Å6+CDDP.
U87 tumors were surgically inoculated into the cerebral ventricles of mice. The animals were allowed to recover for 72 hours at which time treatment with Å6 (75 mg/kg/day IP bid), CDDP (3 mg/kg/day given every other day from day 4×6 administrations), or a combination of Å6+CDDP was initiated,
Animals were treated for 21 days at which time they were euthanized and their brains evaluated for the presence of tumor. Transverse sections were stained with hematoxylin and eosin (H&E).
Tumor sections were also evaluated for microvessel density using antibodies specific for mouse-CD31 in immunostaining. Very few CD31^+ foci were evident in animals treated with the combination of Å6+CDDP.
Tumors were established as in the previous section, and the same therapeutic regimens were employed. Treatment was discontinued at day 21, and survival was measured. Control animals appeared moribund around day 25 and all of the animals in this group were dead by day 30.

PC-3 cells = experiment: PC-3 CAT metastasis model; type: in vivo, mice; conditions: minipump 100 mg/kg/day, 14 or 21 days
Description: The compounds of this invention are also tested for inhibition of late metastasis using an experimental metastasis model (Crowley et al., 1993). Late metastasis involves the steps of attachment and extravasation of tumor cells, local invasion, seeding, proliferation and angiogenesis.
Human prostatic carcinoma cells (PC-3) transfected with a reporter gene, preferably the green fluorescent protein (GFP) gene, but as an alternative with a gene encoding the enzymes chioramphenicol acetyl-transferase (CAT), luciferase or LacZ. This permits utilization of either of these markers (fluorescence detection of GFP or histochemical colorimetric detection of enzymatic activity) for following the fate of these cells. Cells are injected, preferably iv, and metastases identified after about 14 days, particularly in the lungs but also in regional lymph nodes, femurs and brain. This mimics the organ tropism of naturally occurring metastases of prostate cancer. For example, GFP-expressing PC-3 cells (1×10^6 cells per mouse) are injected iv into the tail veins of nude (nu/nu) mice. Animals are also implanted with mini-pumps (sub-dermally on the back) dispensing either the test compound (at least about 100 mg/kg/day) or vehicle. The animals are euthanized after 14 days and their organs prepared for histological examination. Single metastatic cells and foci are visualized and quantitated by fluorescence microscopy or light microscopic histochemistry or by grinding the tissue and quantitative colorimetric assay of the detectable label.
In addition to Å6, other related peptide compounds described above are tested for efficacy in vivo in the 3LL model (as provided above) as well as the PC-3 model. PC-3 cells transfected with the gene encoding the enzyme chloramphenicol acetyl-transferase (CAT) are inoculated into mice i.v. at doses of 1×10^6 cells per mouse. These mice are implanted with a minipump, as above, which dispenses 100 mg/kg/day of the peptide or vehicle over a period of 14 or 21 days. At termination of treatment, the animals are euthanized and the tumor marker probe is assayed in regional lymph nodes, femurs, lungs, and brain.

[2] = test system: MDA-MB-231 human breast cancer cells; experiment: MDA-MB-231 GFP xenograft model; set-up: species or system mice; conditions: mouse, in vivo

Question: With “Ac-KPSSPPEE-NH2 [Å6, CH3CO-Lys-Pro-Ser-Ser-Pro-Pro-Glu-Glu-NH2]” as the substance, how does the “in vitro invasion of PC-3 cells in a Matrigel system” value [1] read?
Answer: inhibited the invasion

Question: And the “anti-proliferative effect, Mat B-III” value (Mat B-III)?
Answer: No anti-proliferative effects

Question: And the “anti-proliferative effect, CHO” value (CHO)?
Answer: No anti-proliferative effects

Question: And the “scuPA-suPAR mediated clot lysis” value (scuPA-suPAR complex)?
Answer: inhibits

Question: What about the “potentiation of the anti-proliferative activity of cisplatin (CDDP) against endothelial cells” value (HUVEC; CDDP 1 μg/mL, Å6 varied (FIG. 5)) of the same substance?
Answer: did not potentiate

Question: What about the “inhibition of HUVEC proliferation” value (HUVEC; concentrations as high as 312 μg/mL (340 μM), gelatin, 2% FBS) of the same substance?
Answer: No inhibition

Question: What about the “differentiation of the vessels” value (U87 tumors; qualitative) of the same substance?
Answer: fewer branching vessels

Question: And the “microvessel density (CD31+ foci), angiogenesis” value (U87 tumors; tumor sections, mouse-CD31 immunostaining)?
Answer: inhibited angiogenesis to some extent

Question: What about the “metastasis, PC-3 model” value (PC-3 cells) of the same substance?
Answer: markedly inhibited

Question: And the “efficacy on tumors staged to 50-100 mm^3 prior to initiating treatment” value [2]?
Answer: ineffective
